pIC50: −log10 of the molar value. Activity calls are given as the source filed them. No rule for the calls is given here.
Target: Nuclear receptor subfamily 5 group A member 2 (Homo sapiens) (UniProt O00482)
Assay: LRH-1 (NR5A2) inverse agonist potency, dose response, cell-based, luminescence, late stage (AID 651976)
Conditions: cell-based LRH-1 luciferase reporter

Nuclear receptor subfamily 5 group A member 2 (Homo sapiens), sequence (O00482 whole entry, looked up): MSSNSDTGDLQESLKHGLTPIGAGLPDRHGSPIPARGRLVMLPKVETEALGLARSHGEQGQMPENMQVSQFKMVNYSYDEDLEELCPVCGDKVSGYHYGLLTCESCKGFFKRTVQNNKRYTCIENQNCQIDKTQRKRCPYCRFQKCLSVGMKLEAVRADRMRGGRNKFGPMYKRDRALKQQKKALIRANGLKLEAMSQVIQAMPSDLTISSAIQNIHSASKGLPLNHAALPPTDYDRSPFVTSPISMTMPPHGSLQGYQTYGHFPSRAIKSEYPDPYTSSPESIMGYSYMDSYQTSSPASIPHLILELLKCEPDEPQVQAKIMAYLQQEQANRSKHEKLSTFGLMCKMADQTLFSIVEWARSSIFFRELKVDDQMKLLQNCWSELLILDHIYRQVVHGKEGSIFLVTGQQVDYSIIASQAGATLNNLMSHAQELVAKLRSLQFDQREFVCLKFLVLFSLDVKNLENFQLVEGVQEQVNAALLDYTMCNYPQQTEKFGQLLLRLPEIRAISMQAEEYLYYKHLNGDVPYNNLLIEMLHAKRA

Row | Compound | IC50 | pIC50
1 | COc1ccc(NC(=O)CN2C(=O)NC3(CCCC3)C2=O)cc1 | > 35.9 µM (inactive) | 
2 | Cc1ccc(NC(=O)CSc2nc3[nH]c(=O)cc(O)c3s2)c(Br)c1 | inactive | 
3 | O=C(COc1ccc2c3c(c(=O)oc2c1)CCCC3)NCc1ccccn1 | > 35.9 µM (inactive) | 
4 | COC(=O)c1ccc(NC(=O)CN2CCN(c3ccc(Cl)cc3)CC2)cc1 | > 35.9 µM (inactive) | 
5 | O=C(CSc1nnc(CNC(=O)c2c(F)cccc2F)o1)Nc1ccc2c(c1)OCCO2 |  | 5.15
6 | COc1ccc(CCNC(=O)COC(=O)c2cc(Cl)nc(Cl)c2)cc1 | > 35.9 µM (inactive) | 
7 | COc1ccc(CCNC(=O)CSc2nn3c(=O)c(C)nnc3s2)cc1OC |  | 5.86
8 | CCOc1ccc(NC(=O)CSc2nnc(C(C)C)n2CC)cc1 | > 12 µM (inactive) | 
9 | COc1ccc(NC(=O)CSc2nc(N)c(-c3ccccc3)c(=O)[nH]2)cc1 |  | 5.78
10 | Cc1ccc(-c2csc(NC(=O)c3ccc([N+](=O)[O-])o3)n2)cc1 | > 35.9 µM (inactive) | 
11 | Cc1sc(NC(=O)C(C)C)c(C(=O)Nc2ccccc2)c1C |  | 5.09
12 | NC(=O)C1CCN(C(=O)COc2ccc3c4c(c(=O)oc3c2)CCCC4)CC1 | > 12 µM (inactive) | 
13 | COc1ccc(CC(NC(C)=O)C(=O)NC2CCN(c3nnnn3-c3ccccc3)CC2)cc1 (stereo not drawn) |  | 6.11
14 | O=C(CN1C(=O)CCC1=O)Nc1ccc(Br)cc1 |  | 5.65
15 | COc1ccc(CCNC(=O)COC(=O)c2cccn2C)cc1 | > 35.9 µM (inactive) | 
16 | O=C(OCC(=O)N1CCN(C(=O)COC(=O)c2ccc(O)cc2O)CC1)c1ccc(O)cc1O |  | 5.86
17 | COc1ccc(NC(=O)COC(=O)c2cc(S(=O)(=O)N3CCCC3)ccc2O)cc1 | > 35.9 µM (inactive) | 
18 | CCn1c(SCC(=O)Nc2ccc(Cl)cc2)nnc1C1CC1 | > 35.9 µM (inactive) | 
19 | O=C(COC(=O)CCN1C(=O)C2CC=CCC2C1=O)NCCc1ccc(F)cc1 (stereo not drawn) | > 35.9 µM (inactive) | 
20 | COc1ccc(NS(=O)(=O)c2ccc(OCC(=O)N3CCN(C)CC3)cc2)cc1Cl |  | 5.28
21 | CCc1cc(=O)oc2c(C)c(OCC(=O)NCCN3CCOCC3)ccc12 | > 35.9 µM (inactive) | 
22 | COCCn1c(C)cc(/C=C(\C#N)C(=O)OCC(=O)Nc2ccc(S(N)(=O)=O)cc2)c1C | > 35.9 µM (inactive) | 
23 | CCc1c(C)nc(SCC(=O)Nc2ccc3c(c2)OCCO3)[nH]c1=O |  | 5.12
24 | CCCc1cc(=O)oc2cc(OCC(=O)NCCc3ccc(S(N)(=O)=O)cc3)ccc12 | > 35.9 µM (inactive) | 
25 | Cc1cc(Br)ccc1NC(=O)CSc1nnc(CN2CCOCC2)n1C |  | 5.10
26 | Cc1ccc(NC(=O)COC(=O)C(NS(=O)(=O)c2ccc(Cl)cc2)C(C)O)cc1C (stereo not drawn) |  | 5.78

Row | Compound | IC50 | pIC50
27 | CCOc1ccc(NC(=O)CSc2nccn(-c3ccc4c(c3)OCCO4)c2=O)cc1 |  | 6.17
28 | Cc1cc(Br)ccc1NC(=O)CN1C(=O)CCC1=O |  | 5.97
29 | CC(C)CC1(C)NC(=O)N(CC(=O)Nc2ccc3c(c2)OCCO3)C1=O (stereo not drawn) | > 35.9 µM (inactive) | 
30 | Cc1ccc(NC(=O)COC(=O)C(NS(=O)(=O)c2ccc(Cl)cc2)C(C)O)c(Br)c1 (stereo not drawn) | > 35.9 µM (inactive) | 
31 | CCCN(CC(=O)Nc1ccc(C(C)=O)cc1)CC(=O)Nc1ccccc1C | inactive | 
32 | CCCc1cc(=O)oc2c(C)c(OCC(=O)NCCN3CCOCC3)ccc12 | > 35.9 µM (inactive) | 
33 | CCOc1ccc(NC(=O)COC(=O)CC2CCCCC2)cc1 | > 35.9 µM (inactive) | 
34 | O=C(NCC1CCCO1)c1ccc(NC(=O)c2cccc([N+](=O)[O-])c2)cc1 (stereo not drawn) |  | 6.41
35 | CC(=O)c1ccc(NC(=O)C(C)O/N=C(\N)c2ccccc2)cc1 (stereo not drawn) |  | 5.12
36 | COc1ccc(NC(=O)CSc2sc3c(O)cc(=O)[nH]c3c2C#N)c(OC)c1 | inactive | 
37 | COC(=O)c1ccc(NC(=O)CSc2nc3ncccc3[nH]2)cc1 | > 35.9 µM (inactive) | 
38 | CC1SC(C)C(=O)N(CC(=O)Nc2ccc3c(c2)OCO3)C1=O (stereo not drawn) | > 35.9 µM (inactive) | 
39 | COc1ccc(-n2c(N)c(C(=O)NCc3cccnc3)sc2=S)cc1 | > 35.9 µM (inactive) | 
40 | CCOc1ccc(NC(=O)CSc2nc3[nH]ncc3c(=O)[nH]2)cc1 |  | 5.95
41 | COC(=O)c1ccc(NC(=O)COc2cccc(-n3cnnn3)c2)cc1 |  | 5.64
42 | Cc1cc(=O)oc2c(C)c(OCC(=O)NC3CC(C)(C)NC(C)(C)C3)ccc12 | > 35.9 µM (inactive) | 
43 | COc1ccc(CCNC(=O)COC(=O)C23CC4CC(CC(C4)C2)C3)cc1 |  | 5.83
44 | CC(=O)Nc1ccc(N=c2cc([N+](=O)[O-])cc(Cl)n2O)cc1 |  | 6.03
45 | COC(=O)c1ccc(NC(=O)CSc2nncn2-c2cccnc2)cc1 | > 35.9 µM (inactive) | 
46 | COC(=O)c1ccc(CNC(=O)COC(=O)c2cc(Cl)nc(Cl)c2)cc1 |  | 5.52
47 | O=C(Nc1ccccc1)c1oc2ccccc2c1NC(=O)C1CC1 |  | 5.04
48 | Cc1ccc2cccc(OCC(=O)NCCC3=CCCCC3)c2n1 |  | 5.74
49 | Cc1cccc(NC(=O)COC(=O)Cc2cccs2)c1C | > 35.9 µM (inactive) | 
50 | COc1ccc(CCNC(=O)COC(=O)Cc2ccccc2[N+](=O)[O-])cc1 | > 35.9 µM (inactive) | 
51 | O=C(NCc1ccco1)c1nn(-c2ccccc2)c(=O)c2ccccc12 |  | 5.36
52 | COc1ccc(NC(=O)COC(=O)c2c(-c3ccccc3)noc2C)cc1 |  | 6.17

Row | Compound | IC50 | pIC50
53 | Cc1cccc(NC(=O)COC(=O)CN2C(=O)c3ccccc3C2=O)c1C | > 35.9 µM (inactive) | 
54 | CCCc1cc(=O)oc2c(C)c(OCC(=O)NCCCn3ccnc3)ccc12 | > 35.9 µM (inactive) | 
55 | N#CCSc1ccccc1NC(=O)CN1C(=O)C2CC=CCC2C1=O (stereo not drawn) | inactive | 
56 | O=C1CCCN2N=C(SCC(=O)Nc3ccc(Br)cc3)SC2=N1 | > 35.9 µM (inactive) | 
57 | Cc1cc(OCC(=O)Nc2nccs2)c2c(C)cc(=O)oc2c1 |  | 5.90
58 | Cc1ccc(NC(=O)COC(=O)c2cc(=O)c3ccccc3o2)c(Br)c1 | > 35.9 µM (inactive) | 
59 | CCCc1nnc(SCC(=O)Nc2ccc(C(=O)OCC)cc2)o1 | > 35.9 µM (inactive) | 
60 | CC(=O)Nc1ncc(Cc2cc(Cl)ccc2Cl)s1 |  | 5.07
61 | O=C(COC(=O)c1ccc(=O)n(Cc2ccccc2)n1)Nc1ccc2c(c1)OCCO2 | > 35.9 µM (inactive) | 
62 | O=C(CSc1nc(=O)n2cc(Cl)ccc2n1)Nc1ccc2c(c1)OCCO2 | > 35.9 µM (inactive) | 
63 | COCC(=O)NC1CCN(CC(=O)Nc2ccc(OC)cc2[N+](=O)[O-])CC1 | > 35.9 µM (inactive) | 
64 | CCc1cc(=O)[nH]c(SCC(=O)Nc2ccc3c(c2)OCCO3)n1 | > 35.9 µM (inactive) | 
65 | CCOc1ccc(NC(=O)CSc2nncc(=O)n2N)cc1 | > 12 µM (inactive) | 
66 | O=C(COc1ccc2c3c(c(=O)oc2c1)CCC3)NCc1ccncc1 | > 35.9 µM (inactive) | 
67 | Cc1nn(CC(=O)Nc2ccc3c(c2)OCCO3)c(C)c1[N+](=O)[O-] | > 35.9 µM (inactive) | 
68 | Cc1ccc(NC(=O)CSc2sc3c(O)cc(=O)[nH]c3c2C#N)c(F)c1 | > 35.9 µM (inactive) | 
69 | CCOc1ccc(OCCN2C(=O)NC(Cc3c[nH]c4ccccc34)C2=O)cc1 (stereo not drawn) | > 35.9 µM (inactive) | 
70 | CCOc1ccc(OCCC(=O)OCC(=O)Nc2ccc3c(c2)OCCO3)cc1 | > 35.9 µM (inactive) | 
71 | O=c1[nH]c(Nc2ccc3c(c2)OCCO3)nnc1Cc1ccccc1 |  | 5.64
72 | O=C(COC(=O)c1ccc(Br)cc1)Nc1ccccc1Br |  | 5.39
73 | COc1ccc(CCNC(=O)CSc2ccc(NC(C)=O)cc2)cc1OC |  | 5.26
74 | COc1ccc(C2(C)NC(=O)N(CC(=O)NCCC3=CCCCC3)C2=O)cc1OC (stereo not drawn) | > 35.9 µM (inactive) | 
75 | COc1ccccc1Oc1nnnn1-c1ccc(C(N)=O)cc1 |  | 5.01
76 | O=C(CSc1nnc(CNC(=O)c2ccccc2F)o1)Nc1ccc2c(c1)OCCO2 |  | 6.14
77 | O=C(COC(=O)c1ccc[n+]([O-])c1)Nc1ccc([N+](=O)[O-])cc1Cl |  | 5.14
78 | CC(=O)c1ccc(OC(C)C(=O)OCC(=O)NCCc2ccccc2)cc1 (stereo not drawn) | > 35.9 µM (inactive) | 
